Legend:
Type in all cases: functional
Mus musculus [1] = species on record: Mus musculus; test: Average change in body weight from onset to termination of drug therapy in mice bearing the L1210 Leukemia at 120 mg / kg
Mus musculus [2] = species on record: Mus musculus; test: Average change in body weight from onset to termination of drug therapy in mice bearing the P388 Leukemia at 100 mg / kg
Mus musculus [3] = species on record: Mus musculus; test: The average survival time (days) of mice bearing the L1210 Leukemia at 120 mg / kg (Mice that survived more than 50 days)
Mus musculus [4] = species on record: Mus musculus; test: The average survival time(days) of mice bearing the P388 Leukemia at 100 mg / kg
Mus musculus [5] = species on record: Mus musculus; test: Average survival time (treated / control) x100 was calculated in mice bearing the P388 Leukemia at 100 mg / kg (Mice that survived more than 50 days)
Mus musculus [6] = species on record: Mus musculus; test: At the 50 day survivors of mice bearing the L1210 Leukemia at 120 mg / kg; parameters: unit not given here
Mus musculus [7] = species on record: Mus musculus; test: At the 50 day survivors of mice bearing the P388 Leukemia at 100 mg / kg (Mice that survived more than 50 days)
Mus musculus [8] = species on record: Mus musculus; test: Average survival time (treated / control) x100 was calculated in mice bearing the L1210 Leukemia at 120 mg / kg (Mice that survived more than 50 days)
Mus musculus [9] = species on record: Mus musculus; test: Average change in body weight from onset to termination of drug therapy in mice bearing the L1210 Leukemia at 80 mg / kg
Mus musculus [10] = species on record: Mus musculus; test: The average survival time (days) of mice bearing the L1210 Leukemia at 80 mg / kg
Mus musculus [11] = species on record: Mus musculus; test: Average survival time (treated / control) x100 was calculated in mice bearing the L1210 Leukemia at 80 mg / kg
Mus musculus [12] = species on record: Mus musculus; test: Average survival time (treated / control) x100 was calculated in mice bearing the P388 Leukemia at 100 mg / kg
Mus musculus [13] = species on record: Mus musculus; test: At the 50 day survivors of mice bearing the L1210 Leukemia at 80 mg / kg
Mus musculus [14] = species on record: Mus musculus; test: At the 50 day survivors of mice bearing the P388 Leukemia at 100 mg / kg; parameters: unit not given here
Mus musculus [15] = species on record: Mus musculus; test: The average survival time (days) of mice bearing the L1210 Leukemia at 100 mg / kg
Mus musculus [16] = species on record: Mus musculus; test: Average change in body weight from onset to termination of drug therapy in mice bearing the L1210 Leukemia at 100 mg / kg
Mus musculus [17] = species on record: Mus musculus; test: Average survival time (treated / control) x100 was calculated in mice bearing the L1210 Leukemia at 100 mg / kg
Mus musculus [18] = species on record: Mus musculus; test: At the 50 day survivors of mice bearing the L1210 Leukemia at 100 mg / kg; parameters: unit not given here
Mus musculus [19] = species on record: Mus musculus; test: The average survival time(days) of mice bearing the P388 Leukemia at 100 mg / kg (Mice that survived more than 50 days)
Mus musculus [20] = species on record: Mus musculus; test: The average survival time (days) of mice bearing the L1210 Leukemia at 120 mg / kg
Mus musculus [21] = species on record: Mus musculus; test: The average survival time(days) of mice bearing the P388 Leukemia at 80 mg / kg
Mus musculus [22] = species on record: Mus musculus; test: Average change in body weight from onset to termination of drug therapy in mice bearing the P388 Leukemia at 80 mg / kg
Mus musculus [23] = species on record: Mus musculus; test: Average survival time (treated / control) x100 was calculated in mice bearing the P388 Leukemia at 80 mg / kg
Mus musculus [24] = species on record: Mus musculus; test: At the 50 day survivors of mice bearing the P388 Leukemia at 80 mg / kg
Mus musculus [25] = species on record: Mus musculus; test: Average survival time (treated / control) x100 was calculated in mice bearing the L1210 Leukemia at 120 mg / kg
Mus musculus [26] = species on record: Mus musculus; test: Average change in body weight from onset to termination of drug therapy in mice bearing the L1210 Leukemia at 60 mg / kg
Mus musculus [27] = species on record: Mus musculus; test: The average survival time (days) of mice bearing the L1210 Leukemia at 60 mg / kg
Mus musculus [28] = species on record: Mus musculus; test: Average survival time (treated / control) x100 was calculated in mice bearing the L1210 Leukemia at 60 mg / kg
Mus musculus [29] = species on record: Mus musculus; test: At the 50 day survivors of mice bearing the L1210 Leukemia at 60 mg / kg
Mus musculus [30] = species on record: Mus musculus; test: The average survival time(days) of mice bearing the P388 Leukemia at 80 mg / kg (Mice that survived more than 50 days)
Mus musculus [31] = species on record: Mus musculus; test: Average survival time (treated / control) x100 was calculated in mice bearing the P388 Leukemia at 80 mg / kg (Mice that survived more than 50 days)
Mus musculus [32] = species on record: Mus musculus; test: Average change in body weight from onset to termination of drug therapy in mice bearing the P388 Leukemia at 120 mg / kg
Mus musculus [33] = species on record: Mus musculus; test: The average survival time (days) of mice bearing the L1210 Leukemia at 100 mg / kg (Mice that survived more than 50 days)
Mus musculus [34] = species on record: Mus musculus; test: The average survival time(days) of mice bearing the P388 Leukemia at 120 mg / kg (Mice that survived more than 50 days)
Mus musculus [35] = species on record: Mus musculus; test: Average survival time (treated / control) x100 was calculated in mice bearing the P388 Leukemia at 120 mg / kg (Mice that survived more than 50 days)
Mus musculus [36] = species on record: Mus musculus; test: Average survival time (treated / control) x100 was calculated in mice bearing the L1210 Leukemia at 100 mg / kg (Mice that survived more than 50 days)
Mus musculus [37] = species on record: Mus musculus; test: At the 50 day survivors of mice bearing the P388 Leukemia at 120 mg / kg
Mus musculus [38] = species on record: Mus musculus; test: The average survival time (days) of mice bearing the L1210 Leukemia at 80 mg / kg (Mice that survived more than 50 days)
Mus musculus [39] = species on record: Mus musculus; test: Average survival time (treated / control) x100 was calculated in mice bearing the L1210 Leukemia at 80 mg / kg (Mice that survived more than 50 days)

SMILES | Average change in body weight (Mus musculus [1]) [%] | Average change in body weight (Mus musculus [2]) [%] | Average survival (Mus musculus [4]) [days] | T/C (Mus musculus [5]) [%] | Survivors (Mus musculus [6]) | T/C (Mus musculus [12]) [%] | Survivors (Mus musculus [14]) | Average survival (Mus musculus [15]) [days] | Average change in body weight (Mus musculus [16]) [%] | T/C (Mus musculus [17]) [%] | Survivors (Mus musculus [18]) | further results
Cc1cc(C)c(S(=O)(=O)N/N=C/c2cccc[n+]2[O-])c(C)c1 | -1 | -9.3 | 17 | 180 | 40 | – | – | – | – | – | – | Average survival (Mus musculus [3]): 11.3 days; Survivors (Mus musculus [7]): 40; T/C (Mus musculus [8]): 126%
O=C(O)c1cc(S(=O)(=O)N/N=C/c2cccc[n+]2[O-])ccc1O | – | -9.8 | 13.8 | – | – | 147 | 0 | – | – | – | – | Average change in body weight (Mus musculus [9]): 0%; Average survival (Mus musculus [10]): 14 days; T/C (Mus musculus [11]): 156%; Survivors (Mus musculus [13]): 0
CN(C)c1ccc(S(=O)(=O)N/N=C/c2cccc[n+]2[O-])cc1 | – | -4.4 | 16.4 | – | – | 174 | 0 | 16.8 | -3.2 | 187 | 0 | –
Cc1ccc(S(=O)(=O)N/N=C/c2cccc[n+]2[O-])cc1C(=O)O | – | -5.9 | – | 99 | – | – | 40 | 11.8 | -5 | 131 | 0 | Average survival (Mus musculus [19]): 9.3 days
CC(=O)Nc1ccc(S(=O)(=O)N/N=C/c2cccc[n+]2[O-])cc1 | 0 | – | – | – | 0 | – | – | – | – | – | – | Average survival (Mus musculus [20]): 15.2 days; Average survival (Mus musculus [21]): 14.8 days; Average change in body weight (Mus musculus [22]): -4.4%; T/C (Mus musculus [23]): 157%; Survivors (Mus musculus [24]): 0; T/C (Mus musculus [25]): 169%
O=S(=O)(N/N=C/c1cccc[n+]1[O-])c1ccc(O)cc1 | – | -15.4 | 16 | – | – | 170 | 0 | 12.2 | -0.8 | 136 | 0 | –
O=C(O)c1ccc(S(=O)(=O)N/N=C/c2cccc[n+]2[O-])cc1 | – | -4.1 | 13.8 | – | – | 147 | 0 | – | – | – | – | Average change in body weight (Mus musculus [26]): 3.4%; Average survival (Mus musculus [27]): 10.8 days; T/C (Mus musculus [28]): 120%; Survivors (Mus musculus [29]): 0
COc1ccc(C(=O)O)cc1S(=O)(=O)N/N=C/c1cccc[n+]1[O-] | – | – | – | – | – | – | – | 11.6 | 8.1 | 129 | 0 | Average survival (Mus musculus [30]): 15 days; Average change in body weight (Mus musculus [22]): -3.1%; T/C (Mus musculus [31]): 160%; Survivors (Mus musculus [24]): 20
O=C(O)c1cccc(S(=O)(=O)N/N=C/c2cccc[n+]2[O-])c1 | -2.4 | – | – | – | 0 | – | – | – | – | – | – | Average survival (Mus musculus [20]): 12.4 days; Average survival (Mus musculus [21]): 13.8 days; Average change in body weight (Mus musculus [22]): -6.5%; T/C (Mus musculus [23]): 147%; Survivors (Mus musculus [24]): 0; T/C (Mus musculus [25]): 138%
COc1ccc(S(=O)(=O)N/N=C/c2cccc[n+]2[O-])cc1OC | – | – | – | – | – | – | – | – | -8.7 | – | 80 | Average change in body weight (Mus musculus [32]): -18.8%; Average survival (Mus musculus [33]): 19 days; Average survival (Mus musculus [34]): 11.5 days; T/C (Mus musculus [35]): 122%; T/C (Mus musculus [36]): 210%; Survivors (Mus musculus [37]): 60
O=C(O)Cc1ccc(S(=O)(=O)N/N=C/c2cccc[n+]2[O-])cc1 | 7.3 | -5.2 | 13.6 | – | 0 | 145 | 0 | – | – | – | – | Average survival (Mus musculus [20]): 10.4 days; T/C (Mus musculus [25]): 116%
COc1ccc(S(=O)(=O)N/N=C/c2cccc[n+]2[O-])c(OC)c1 | – | -10.3 | – | 226 | – | – | 20 | – | – | – | – | Average change in body weight (Mus musculus [9]): -2.5%; Average survival (Mus musculus [38]): 11.7 days; Average survival (Mus musculus [19]): 21.2 days; T/C (Mus musculus [39]): 130%; Survivors (Mus musculus [13]): 20
Cc1ccc(C(=O)O)cc1S(=O)(=O)N/N=C/c1cccc[n+]1[O-] | – | 0 | – | 180 | – | – | 20 | 12 | 4.1 | 133 | 0 | Average survival (Mus musculus [19]): 17 days
